In one test the target is T1, K-Ras G12D (Homo sapiens, UniProt P01116, G12D).
T1 construct: made in house; host or cells: E. coli BL21 (DE3)
As to the kind of experiment: HTRF resonance energy transfer assay, K-Ras G12D / SOS1 interaction. In kind it is biochemical. The conditions noted are these: HTRF assay of Example 5; read-out: IC50 against K-Ras G12D. A digest of the protocol: (§1)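 Compounds, tested in duplicate at 10 μM down to 0.01 μM, were read after about 10 min or more by HTRF as the 665/620 nm emission ratio (337 nm excitation) to derive IC50. This ratio reports FRET between an anti-GST-Eu donor on GST-K-Ras (wild-type or mutant) and an anti-6His-XL665 acceptor on His-hSOS1. Buffer: ~5 mM HEPES pH 7.4, 150 mM NaCl, 1 mM DTT, 0.05% BSA, 0.0025% Igepal.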
A general note: In TR-FRET formats the signal depends on donor and acceptor labels being close together.

A further test concerns the target T2, K-Ras G12S (Homo sapiens, UniProt P01116, G12S).
T2 construct: made in house; host or cells: E. coli BL21 (DE3)
As to the kind of experiment: HTRF resonance energy transfer assay, K-Ras G12S / SOS1 interaction. The conditions noted are these: HTRF assay of Example 5; read-out: IC50 against K-Ras G12S. In kind it is biochemical. An outline of the steps: as §1

For a further test, the target named is T3, K-Ras G12V (Homo sapiens, UniProt P01116, G12V).
T3 construct: made in house; host or cells: E. coli BL21 (DE3)
T3 sequence (P01116 1-188 isoform P01116-2 G12V): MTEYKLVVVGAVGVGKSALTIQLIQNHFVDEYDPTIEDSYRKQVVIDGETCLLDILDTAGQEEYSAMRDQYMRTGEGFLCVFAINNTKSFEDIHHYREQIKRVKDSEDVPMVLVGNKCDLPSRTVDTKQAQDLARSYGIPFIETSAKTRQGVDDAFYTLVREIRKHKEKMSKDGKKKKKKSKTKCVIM
As to the kind of experiment: HTRF resonance energy transfer assay, K-Ras G12V / SOS1 interaction. Particulars: HTRF assay of Example 5; read-out: IC50 against K-Ras G12V. The class given is biochemical. A digest of the protocol: as §1

The target of a further test is T4, K-Ras WT (Homo sapiens, UniProt P01116).
T4 construct: made in house; host or cells: E. coli BL21 (DE3)
T4 sequence (P01116 1-188 isoform P01116-2): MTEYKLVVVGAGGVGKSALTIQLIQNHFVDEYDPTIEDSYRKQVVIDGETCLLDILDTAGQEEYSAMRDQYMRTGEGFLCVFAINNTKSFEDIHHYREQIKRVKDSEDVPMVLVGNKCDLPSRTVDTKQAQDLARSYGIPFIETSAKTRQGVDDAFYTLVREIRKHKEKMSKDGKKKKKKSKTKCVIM
As to the kind of experiment: HTRF resonance energy transfer assay, K-Ras WT / SOS1 interaction. The class given is biochemical. Particulars: HTRF assay of Example 5; read-out: IC50 against K-Ras WT. An outline of the steps:
as §1

Another test concerns GP2D cells. As to the kind of experiment: Ras cellular assay, growth of cells with K-Ras G12D mutation (CellTiter-Glo). The class given is cell-based. Particulars: cell growth, Example 9, G12D mutation, read-out: IC50 against GP2D cells. In general terms: ATP-based viability assays read luminescence as a measure of living cells.
A further test concerns A549 cells. The test can be described thus: Ras cellular assay, growth of cells with K-Ras G12S mutation (CellTiter-Glo). In kind it is cell-based. Particulars: Homo sapiens, cell growth, Example 9, G12S mutation, read-out: IC50 against A549 cells. A digest of the protocol:
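Growth inhibition IC50 values come from four-parameter fits of CellTiter-Glo luminescence, read about 6 days after compound addition. G12S-mutant A549 cells (e.g. 800/well, RPMI-1640 + 10% heat-inactivated FBS) were plated in tissue-culture-treated or ultra-low-attachment 384-well format. Dosing began the following day with serial dilutions, e.g. 10 points, 3-fold.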

In a further test the test system is SW620 cells. As to the kind of experiment: Ras cellular assay, growth of cells with K-Ras G12V mutation (CellTiter-Glo). The class given is cell-based. The conditions noted are these: Homo sapiens, SW-620; cell growth, Example 9, G12V mutation; read-out: IC50 against SW620 cells. A digest of the protocol: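 IC50 values came from a four-parameter fit of CellTiter-Glo viability, read roughly 6 days after dosing with e.g. a 10-point threefold dilution series. G12V-mutant SW620 cells (e.g. 800 per well) had been plated the previous day in RPMI-1640/10% heat-inactivated FBS, on tissue culture-treated or ultra-low attachment plates.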

Bounds are passed on as bounds.

T1 sequence (P01116 1-188 isoform P01116-2 G12D): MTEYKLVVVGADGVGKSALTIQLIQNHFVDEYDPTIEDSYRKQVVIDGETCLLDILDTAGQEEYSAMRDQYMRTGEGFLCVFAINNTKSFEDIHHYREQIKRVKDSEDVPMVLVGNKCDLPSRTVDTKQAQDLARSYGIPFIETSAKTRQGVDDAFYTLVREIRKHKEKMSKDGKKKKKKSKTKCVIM
T2 sequence (P01116 1-188 isoform P01116-2 G12S): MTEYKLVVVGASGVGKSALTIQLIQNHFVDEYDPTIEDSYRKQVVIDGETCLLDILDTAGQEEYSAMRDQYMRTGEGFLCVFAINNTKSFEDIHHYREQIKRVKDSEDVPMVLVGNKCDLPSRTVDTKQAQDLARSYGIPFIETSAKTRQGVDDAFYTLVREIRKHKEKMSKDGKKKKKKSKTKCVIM

For `CN(C=O)C1CC(N2CCOc3c(Cl)c(-c4ccc(F)c5sc(N)c(C#N)c45)c(F)c4nc(OC[C@@]56CCCN5C[C@H](F)C6)nc2c34)C1` (stereo partly drawn) [Compound 1119, N-(3-(9-(2-amino-3-cyano-7-fluorobenzo[b]thiophen-4-yl)-8-chloro-10-fluoro-2-(((2R,7aS)-2-fluorotetrahydro-1H-pyrrolizin-7a(5H)-yl)methoxy)-5,6-dihydro-4H-[1,4]oxazepino[5,6,7-de]quinazolin-4-yl)cyclobutyl)-N-methylformamide], the IC50 on K-Ras G12D was below 100 nM; on K-Ras G12S, below 100 nM; at K-Ras G12V, below 100 nM; on K-Ras WT it was below 100 nM; in the test on GP2D cells, below 500 nM; in the test with A549 cells, below 5000 nM. In addition, in the test with SW620 cells, the IC50 is below 5000 nM.

For `N#Cc1c(N)sc2c(F)ccc(-c3c(Cl)c4c5c(nc(OC[C@@]67CCCN6C[C@H](F)C7)nc5c3F)N(C3CCN(C(=O)CC5COC5)C3)CCO4)c12` (stereo partly drawn) [Compound 1126, 2-amino-4-(8-chloro-10-fluoro-2-(((2R,7aS)-2-fluorotetrahydro-1H-pyrrolizin-7a(5H)-yl)methoxy)-4-(1-(2-(oxetan-3-yl)acetyl)pyrrolidin-3-yl)-5,6-dihydro-4H-[1,4]oxazepino[5,6,7-de]quinazolin-9-yl)-7-fluorobenzo[b]thiophene-3-carbonitrile], the half-inhibitory concentration (IC50) on K-Ras G12D is below 100 nM; on K-Ras G12S, below 100 nM; at K-Ras G12V, below 100 nM; on K-Ras WT, below 100 nM; in the test on GP2D cells it was below 500 nM; in the test with A549 cells, below 5000 nM. Also, the IC50 in the test on SW620 cells was below 5000 nM.

Take `CN(CCN1CCOc2c(Cl)c(-c3ccc(F)c4sc(N)c(C#N)c34)c(F)c3nc(OC[C@@]45CCCN4C[C@H](F)C5)nc1c23)C(=O)C(F)F` [Compound 1127, N-(2-(9-(2-amino-3-cyano-7-fluorobenzo[b]thiophen-4-yl)-8-chloro-10-fluoro-2-(((2R,7aS)-2-fluorotetrahydro-1H-pyrrolizin-7a(5H)-yl)methoxy)-5,6-dihydro-4H-[1,4]oxazepino[5,6,7-de]quinazolin-4-yl)ethyl)-2,2-difluoro-N-methylacetamide]: the half-inhibitory concentration (IC50) at K-Ras G12D is below 100 nM; on K-Ras G12S it was below 100 nM; on K-Ras G12V it was below 100 nM; on K-Ras WT, below 100 nM; in the test on GP2D cells it was below 500 nM; in the test with A549 cells it was below 5000 nM. The IC50 in the test on SW620 cells was below 5000 nM.

For `C[C@@H]1CN(CC(F)F)c2nc(OC[C@@]34CCCN3C[C@H](F)C4)nc3c(F)c(-c4ccc(F)c5sc(N)c(C#N)c45)c(Cl)c(c23)O1` [Compound 1133, 2-amino-4-((6R)-8-chloro-4-(2,2-difluoroethyl)-10-fluoro-2-(((2R,7aS)-2-fluorotetrahydro-1H-pyrrolizin-7a(5H)-yl)methoxy)-6-methyl-5,6-dihydro-4H-[1,4]oxazepino[5,6,7-de]quinazolin-9-yl)-7-fluorobenzo[b]thiophene-3-carbonitrile], the IC50 at K-Ras G12D was below 100 nM; on K-Ras G12S it was below 100 nM; at K-Ras G12V, below 100 nM; on K-Ras WT, below 100 nM; with GP2D cells it was below 500 nM; in the test with A549 cells, below 5000 nM. Further, the IC50 with SW620 cells was below 5000 nM.

In the case of `COCC(=O)N1CCC(N2CCOc3c(Cl)c(-c4ccc(F)c5sc(N)c(C#N)c45)c(F)c4nc(OC[C@@]56CCCN5C[C@H](F)C6)nc2c34)C1` (stereo partly drawn) [Compound 1134, 2-amino-4-(8-chloro-10-fluoro-2-(((2R,7aS)-2-fluorotetrahydro-1H-pyrrolizin-7a(5H)-yl)methoxy)-4-(1-(2-methoxyacetyl)pyrrolidin-3-yl)-5,6-dihydro-4H-[1,4]oxazepino[5,6,7-de]quinazolin-9-yl)-7-fluorobenzo[b]thiophene-3-carbonitrile], the IC50 was below 100 nM at K-Ras G12D; below 100 nM at K-Ras G12S; below 100 nM at K-Ras G12V; below 100 nM at K-Ras WT; below 500 nM in the test on GP2D cells; below 5000 nM in the test on A549 cells. Besides, in the test with SW620 cells, the concentration for half-maximal inhibition (IC50) is below 5000 nM.

As for `C[C@@H]1CCOc2c(Cl)c(-c3ccc(F)c4sc(N)c(C#N)c34)c(F)c3nc(OC[C@@]45CCCN4C[C@H](F)C5)nc(c23)N1CC(F)F` [Compound 1203, 2-amino-4-((R)-9-chloro-4-(2,2-difluoroethyl)-11-fluoro-2-(((2R,7aS)-2-fluorotetrahydro-1H-pyrrolizin-7a(5H)-yl)methoxy)-5-methyl-4,5,6,7-tetrahydro-[1,5]oxazocino[4,3,2-de]quinazolin-10-yl)-7-fluorobenzo[b]thiophene-3-carbonitrile], the IC50 on K-Ras G12D is below 100 nM; at K-Ras G12S, below 100 nM; on K-Ras G12V, below 100 nM; at K-Ras WT, below 100 nM; in the test with GP2D cells it was below 500 nM; in the test with A549 cells it was below 5000 nM. Also, in the test on SW620 cells, the concentration for half-maximal inhibition (IC50) is below 5000 nM.

`N#Cc1c(N)sc2c(F)ccc(-c3c(Cl)c4c5c(nc(OC[C@@]67CCCN6C[C@H](F)C7)nc5c3F)N(CCC(F)F)CCCO4)c12` [Compound 1212, 2-amino-4-(9-chloro-4-(3,3-difluoropropyl)-11-fluoro-2-(((2R,7aS)-2-fluorotetrahydro-1H-pyrrolizin-7a(5H)-yl)methoxy)-4,5,6,7-tetrahydro-[1,5]oxazocino[4,3,2-de]quinazolin-10-yl)-7-fluorobenzo[b]thiophene-3-carbonitrile]: the IC50 is below 100 nM at K-Ras G12D; below 100 nM on K-Ras G12S; below 100 nM at K-Ras G12V; below 100 nM on K-Ras WT; below 500 nM in the test with GP2D cells; below 5000 nM in the test with A549 cells. For the same compound, the IC50 in the test with SW620 cells is below 5000 nM.

For `N#Cc1c(N)sc2c(F)ccc(-c3c(Cl)c4c5c(nc(OC[C@@]67CCCN6C[C@H](F)C7)nc5c3F)N(CC(F)F)CCCO4)c12` [Compound 1218, 2-amino-4-(9-chloro-4-(2,2-difluoroethyl)-11-fluoro-2-(((2R,7aS)-2-fluorotetrahydro-1H-pyrrolizin-7a(5H)-yl)methoxy)-4,5,6,7-tetrahydro-[1,5]oxazocino[4,3,2-de]quinazolin-10-yl)-7-fluorobenzo[b]thiophene-3-carbonitrile], the half-inhibitory concentration (IC50) was below 100 nM at K-Ras G12D; below 100 nM on K-Ras G12S; below 100 nM on K-Ras G12V; below 100 nM at K-Ras WT; below 500 nM in the test on GP2D cells; below 5000 nM in the test on A549 cells. Besides, the IC50 in the test on SW620 cells was below 5000 nM.

Consider `N#Cc1c(N)sc2c(F)ccc(-c3c(Cl)c4c5c(nc(OC[C@@]67CCCN6C[C@H](F)C7)nc5c3F)N(C3CCOC3)CC(O)CO4)c12` (stereo partly drawn) [Compound 1225, 2-amino-4-(9-chloro-11-fluoro-2-(((2R,7aS)-2-fluorotetrahydro-1H-pyrrolizin-7a(5H)-yl)methoxy)-6-hydroxy-4-(tetrahydrofuran-3-yl)-4,5,6,7-tetrahydro-[1,5]oxazocino[4,3,2-de]quinazolin-10-yl)-7-fluorobenzo[b]thiophene-3-carbonitrile], for which the half-inhibitory concentration (IC50) at K-Ras G12D was below 100 nM; at K-Ras G12S it was below 100 nM; on K-Ras G12V, below 100 nM; at K-Ras WT, below 100 nM; with GP2D cells, below 500 nM; in the test with A549 cells, below 5000 nM. For the same compound, the IC50 in the test on SW620 cells is below 5000 nM.

By IC50 is commonly meant the concentration at which inhibition is half-maximal.

(Values after patent US12209102B2, “Heterocyclic compounds and uses thereof” (Kumquat Biosciences Inc., priority 2022, dated 2025).)
